Measured values from patent publication US20150094354A1, “METHOD FOR TREATING CELL PROLIFERATIVE DISORDER BY INHIBITING C1GALT1 EXPRESSION” (National Taiwan University, priority 2013, published 2015).

How the values were obtained:
[1] = tested on: MET; test: VVA lectin pull-down of MET; format: cell-based, human
Experimental: Vicia villosa agglutinin (VVA)- and peanut agglutinin (PNA) lectin-conjugated agarose beads, fluorescein isothiocyanate (FITC)-, and biotinylated VVA were purchased from Vector Laboratories. Recombinant EGF, HGF, IGF-I, and protein deglycosylation kits were purchased from Sigma. Protein deglycosylation is carried out using an Enzymatic Protein Deglycosylation Kit (Sigma). Briefly, cell lysates are treated with neuraminidase or PNGase F at 37° C. for 1 hour. For lectin blotting, […] of cell lysate is separated by an 8% SDS-PAGE, transferred to polyvinylidene difluoride membrane (Millipore), and blotted with biotinylated VVA (1:10,000). For lectin pull-down assay, cell lysates (0.3 mg) are incubated with or without deglycosylation enzymes and then applied to VVA- or PNA-conjugated agarose beads at 4° C. for 16 hours. The pulled down proteins are analyzed by Western blotting.
To investigate whether C1GALT1 can modify O-glycans on MET, VVA binding to MET was analyzed in hepatocellular carcinoma cells with C1GALT1 knockdown or overexpression. […] Cell lysates were treated with (+) or without (−) neuraminidase and then pulled down by VVA agarose beads. The pulled down glycoproteins were immunoblotted (IB) with anti-MET antibody. These findings indicate that C1GALT1 can modify O-glycans on MET in hepatocellular carcinoma cells. […]

[2] = tested on: MET; test: HGF-induced dimerization of MET (BS3 cross-linking, Western blotting); format: cell-based, human; details: 25 ng/mL HGF
Experimental: MET is also called hepatocyte growth factor receptor (HGFR). The MET gene is an important protooncogene in a variety of human cancers. To analyze dimerization of MET, hepatocellular carcinoma cells are incubated with or without 25 ng/mL of human HGF in DMEM on ice for 5 minutes. Cross-linker Bis(sulfosuccinimidyl) suberate (BS3, 0.25 mmol/L, Thermo Scientific) is added to cells and reacted at 37° C. for 5 minutes. Cells are then transferred on ice for 10 minutes. Reactions are blocked by adding 50 mmol/L of Tris-HCl (pH 7.4). Cell lysates are separated by 6% SDS-PAGE and immunoblotted with anti-MET antibody.
Because HGF-induced dimerization of MET is an initial and crucial step for the activation of MET signaling, whether C1GALT1 could affect MET dimerization was analyzed. FIGS. 19A-19B are autoradiograms illustrating the effects of C1GALT1 on dimerization of MET in hepatocellular carcinoma cells in accordance with an embodiment of the present invention. Hepatocellular carcinoma cells were starved for 5 hours and then treated with (+) or without (−) 25 ng/mL of HGF. Cell lysates were cross-linked by BS3 and then analyzed by Western blotting with anti-MET antibody. The arrows indicate the dimer (D) of MET, and the arrowheads indicate the monomer (M). Markers of molecular weight are shown on the left. GAPDH is an internal control.

C1GALT1 si-1: siRNA oligonucleotide against C1GALT1, presumably SEQ ID NO: 1, UUAGUAUACGUUCAGGUAAGGUAGG (chemistry not given here)
VVA binding to MET ([1]; HA22T cells): increased | VVA binding to MET ([1]; PLC5 cells): increased | HGF-induced dimerization of MET ([2]; HA22T cells): suppressed | HGF-induced dimerization of MET ([2]; PLC5 cells): suppressed
